From the supplement of paper PMC10307832

Tests used:
Experiment in all cases: relative viability (nuclei count vs DMSO), 5 days (fraction); higher = more cells survive
GSK-J4 + AZD7762 = compound: CCOC(=O)CCNc1cc(N2CCc3ccccc3CC2)nc(-c2ccccn2)n1 [GSK-J4] + NC(=O)Nc1cc(-c2cccc(F)c2)sc1C(=O)N[C@H]1CCCNC1 [AZD7762] (partner 0.2 µM)
In short: (§1)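 Medians of duplicate plates are given as relative viability. That measure is the nuclei count in treated wells divided by the count in vehicle wells. Counts were taken on 4× images of lung cancer cell lines in 1536-well plates, 5 days after pin-tool dosing the day after seeding with one drug alone or a fixed anchor-drug dose plus five library-drug doses (not always all listed) in √10 steps.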

GSK-J4 + Palbociclib = compound: CCOC(=O)CCNc1cc(N2CCc3ccccc3CC2)nc(-c2ccccn2)n1 [GSK-J4] + CC(=O)c1c(C)c2cnc(Nc3ccc(N4CCNCC4)cn3)nc2n(C2CCCC2)c1=O [Palbociclib] (partner 0.5 µM)
In short: as §1

AZ3146 + Decitabine = compound: CN1CCC(CC1)OC2=CC(=C(C=C2)NC3=NC=C4C(=N3)N(C(=O)N4C)C5CCCC5)OC [AZ3146] + Nc1ncn([C@H]2C[C@H](O)[C@@H](CO)O2)c(=O)n1 [Decitabine] (partner 2 µM)
In short: as §1

AZ3146 + Crizotinib = compound: CN1CCC(CC1)OC2=CC(=C(C=C2)NC3=NC=C4C(=N3)N(C(=O)N4C)C5CCCC5)OC [AZ3146] + C[C@@H](Oc1cc(-c2cnn(C3CCNCC3)c2)cnc1N)c1c(Cl)ccc(F)c1Cl [Crizotinib] (partner 1 µM)
In short: as §1

Cell Line	relative viability (GSK-J4 + AZD7762; first compound 0.5 µM)	relative viability (GSK-J4 + AZD7762; first compound 1.581 µM)	relative viability (GSK-J4 + AZD7762; first compound 5 µM)	relative viability (GSK-J4 + AZD7762; first compound 15.81 µM)	relative viability (GSK-J4 + AZD7762; first compound 50 µM)	relative viability (GSK-J4 + Palbociclib; first compound 0.5 µM)	relative viability (GSK-J4 + Palbociclib; first compound 1.581 µM)	relative viability (GSK-J4 + Palbociclib; first compound 5 µM)	relative viability (GSK-J4 + Palbociclib; first compound 15.81 µM)	relative viability (GSK-J4 + Palbociclib; first compound 50 µM)	relative viability (AZ3146 + Decitabine; first compound 0.08 µM)	relative viability (AZ3146 + Decitabine; first compound 0.253 µM)	relative viability (AZ3146 + Decitabine; first compound 0.8 µM)	relative viability (AZ3146 + Decitabine; first compound 2.53 µM)	relative viability (AZ3146 + Decitabine; first compound 8 µM)	relative viability (AZ3146 + Crizotinib; first compound 0.08 µM)	relative viability (AZ3146 + Crizotinib; first compound 0.253 µM)	relative viability (AZ3146 + Crizotinib; first compound 0.8 µM)	relative viability (AZ3146 + Crizotinib; first compound 2.53 µM)	relative viability (AZ3146 + Crizotinib; first compound 8 µM)
NCI-H1437	1.1	0.898	1.02	1.07	0.595	0.293	0.278	0.332	0.38	0.205	0.536	0.533	0.598	0.531	0.481	0.875	0.906	0.853	1.02	0.863
EKVX	0.714		0.732	0.669	0.535	0.352		0.365	0.352	0.344	0.285	0.304	0.381	0.319	0.286	0.957	1.12	1.06	1.1	0.365
NCI-H3122	1.01	0.917	0.916	0.93	1	0.18	0.2	0.181	0.177	0.191	0.475	0.44	0.42	0.426	0.514	0.294	0.299	0.274	0.305	0.27
NCI-H460	0.645			0.65	0.555	0.175		0.167	0.137	0.149	0.38	0.475	0.445	0.467	0.178	0.729	0.844	0.664	0.11	0.0243
PC-3 [JPC-3]	1.04	0.55	0.932	0.748	0.555	0.499	0.511	0.512	0.497	0.514	0.768		0.806	0.81	0.85	0.912	0.983	0.974	1.03	0.984
HCC-15	1.19	1.09	1.12	0.982	1.22	0.712	0.528	0.701	0.694	0.488	0.529	0.59	0.642	0.678	0.39	0.83	0.863	0.768	0.677	0.445
NCI-H1975	0.783	0.633		0.63	0.858	0.543	0.498	0.613	0.524	0.634	0.415	0.601	0.367	0.379	0.415	0.862	1.07	0.834	0.406	0.299
NCI-H727	0.425	0.54	0.728	0.585	0.341	0.648	0.683	0.696	0.593	0.528	0.806	0.913	0.714	0.766	0.783	0.813	0.796	0.8	0.586	0.365
LK-2	0.53	0.29	0.663	0.168	0.19	0.765	0.652	0.85	0.683	0.506		0.372	0.284	0.319	0.337	0.229			0.228	0.219
201T	0.602	0.673	0.581	0.561	0.609	0.359	0.358	0.361	0.326	0.352	0.856	0.858	0.885	0.865	0.847	1.02	1.03	1	1.06	1.02
HCC-827	0.203	0.565	0.252	0.197	0.21	0.539	0.46	0.543	0.431	0.411	0.308	0.364	0.31	0.3	0.347	0.943	0.859	1.04	0.913	0.911
NCI-H650	0.938	1.04		0.782	0.696	0.309	0.283		0.255	0.239	0.307	0.31	0.324	0.317	0.323	0.571	0.721	0.827	0.781	0.542
HARA	0.349	0.36		0.218	0.161	0.242	0.247	0.23	0.234	0.3	0.493	0.563	0.481	0.487	0.478	0.983	1.03	1.03	0.72	0.206
NCI-H2087	1.09	1.25	1.05	1.23	0.8	0.256	0.243	0.282	0.24	0.227	0.227	0.328	0.289	0.315	0.202	0.906	0.875	0.843	0.795	0.376
NCI-H2405	0.774	0.954		0.677	0.738	0.525	0.458		0.522	0.508	0.733	0.738	0.789	0.788	0.697	0.808	0.842	0.733	0.899	0.798
NCI-H2170	0.776	0.839	0.774	0.667	0.836	0.372	0.393	0.392	0.311	0.378	0.441	0.477	0.461	0.421	0.466	1.04	1.07	1.22	1.11	1.03
NCI-H647	0.596	0.431	0.271	0.386	0.44	0.404	0.348	0.358	0.411	0.471	0.359	0.521	0.381	0.441	0.329	0.983	1.12	0.978	0.763	0.201

Cell Line	relative viability (GSK-J4 + AZD7762; first compound 0.5 µM)	relative viability (GSK-J4 + AZD7762; first compound 1.581 µM)	relative viability (GSK-J4 + AZD7762; first compound 5 µM)	relative viability (GSK-J4 + AZD7762; first compound 15.81 µM)	relative viability (GSK-J4 + AZD7762; first compound 50 µM)	relative viability (GSK-J4 + Palbociclib; first compound 0.5 µM)	relative viability (GSK-J4 + Palbociclib; first compound 1.581 µM)	relative viability (GSK-J4 + Palbociclib; first compound 5 µM)	relative viability (GSK-J4 + Palbociclib; first compound 15.81 µM)	relative viability (GSK-J4 + Palbociclib; first compound 50 µM)	relative viability (AZ3146 + Decitabine; first compound 0.08 µM)	relative viability (AZ3146 + Decitabine; first compound 0.253 µM)	relative viability (AZ3146 + Decitabine; first compound 0.8 µM)	relative viability (AZ3146 + Decitabine; first compound 2.53 µM)	relative viability (AZ3146 + Decitabine; first compound 8 µM)	relative viability (AZ3146 + Crizotinib; first compound 0.08 µM)	relative viability (AZ3146 + Crizotinib; first compound 0.253 µM)	relative viability (AZ3146 + Crizotinib; first compound 0.8 µM)	relative viability (AZ3146 + Crizotinib; first compound 2.53 µM)	relative viability (AZ3146 + Crizotinib; first compound 8 µM)
EMC-BAC-2	1.12	0.831		1.07	0.893	0.505	0.474		0.465	0.471			1.09	1.02	0.907	0.679	0.696	0.884	0.763	0.731
H3255	0.827	0.791	0.727	0.791	0.656	0.325	0.299	0.257	0.279	0.284	0.604	0.805	0.562	0.678	0.604	0.841	0.884	0.886	1.03	0.442
NCI-H1651	0.4	0.468	0.466	0.406	0.38	0.502	0.47	0.504	0.504	0.509	0.532	0.634	0.549	0.543	0.617	0.671	0.811	0.912	0.844	0.871
NCI-H23	0.206	0.388	0.254	0.239	0.265	0.483	0.398	0.48	0.375	0.42	0.329	0.313	0.324	0.354	0.425	0.398	0.515	0.516	0.425	0.305
NCI-H1355	0.731	0.693	0.516	0.532	0.584	0.372	0.375	0.415	0.35	0.356	0.336	0.32	0.362	0.423	0.361	1.07	1.04	1.1	1.04	1.08
NCI-H2085	0.926	0.896	0.888	0.792	0.936	0.451	0.434	0.386	0.495	0.494	0.525	0.53	0.581	0.598	0.611	0.837	0.998	0.933	0.824	0.658
NCI-H322M	0.618	0.506	0.555	0.636	0.536	0.493	0.446	0.497	0.435	0.538	0.604	0.671	0.727	0.698	0.721	0.683	0.876	0.9	0.763	0.6
NCI-H1915	0.614	0.728		0.592	0.722	0.533	0.514		0.481	0.514	0.267	0.27	0.266	0.251	0.264	0.878	0.905	0.852	0.896	0.82
HOP-62	0.555	0.573	0.45	0.592	0.451	0.469	0.455	0.44	0.465	0.473	0.22	0.195	0.207	0.248	0.203	0.946	0.955	0.917	1.09	0.601
LXF-289	1.09	0.836	0.742	1.07	0.987	0.588	0.546	0.58	0.555	0.533	0.356	0.382	0.403	0.432	0.388	0.848	0.886	0.795	0.781	0.444
LCLC-103H	0.811	0.76	0.525	0.69	0.65	0.447	0.36	0.455	0.449	0.49	0.675	0.732	0.742	0.741	0.729	0.987	1.08	0.984	1.08	1.11
NCI-H441	1.12	1	1.05	1.01	0.967	0.235	0.202	0.241	0.221	0.161	0.203	0.284	0.259	0.254	0.237	0.646	0.658	0.774	0.773	0.658
BEN	0.694	0.634	0.441	0.567	0.426	0.476	0.314	0.465	0.419	0.457		0.673	0.611	0.759	0.644		0.869	0.97	0.822	0.829
NCI-H1755	0.42	0.622	0.294	0.4	0.387	0.43	0.336	0.456	0.447	0.408	0.68	0.716	0.739	0.842	0.839	0.868	0.888	0.855	0.928	0.816
LOU-NH91	0.773	0.734	0.561	0.703	0.74	0.51	0.468	0.493	0.507	0.46	0.816	0.77	0.886	0.829	0.783	0.749	0.699	0.746	0.71	0.75
LU99A	0.277	0.249		0.244	0.126	0.403	0.375		0.383	0.344		0.848	0.879	0.82	1.02	0.502	0.584	0.555	0.555	0.452
